# According to patent US8119656B2, “Inhibitors of the influenza virus non-structural 1 protein” (The Board of Regents of the University of Texas System, priority 2007, dated 2012):
# How the values were obtained:
# influenza virus (WSN) = type: cell-based
# NS1 protein = target: T1, NS1 protein (Influenza A virus, UniProt P03496); type: cell-based
# T1 construct: expressed in transfected cells; host or cells: 293T cells
# firefly luciferase = type: cell-based
# [1] = tested on: mRNA export block induced by influenza virus infection and mediated by NS1; type: cell-based, influenza virus (WSN)
# influenza virus = test: Inhibition of virus killing in human bronchial epithelial cells (infection assay); type: cell-based; conditions: purity and concentration verified
# Text: FIG. 7. […] Analogs in the library are related structures which provide structure-activity information. The z score is the compound value minus the experimental mean value divided by the standard deviation of the experimental population.
# It is important to note, that with the exception of one compound (8 in FIG. 7), the values shown are from the screening experiments using compounds for which only estimated concentrations and solubilities were available. Inhibitor 8 has been purchased in large quantities from Chemical Diversity Laboratories (San Diego, Calif.) and its purity and concentration verified prior to obtaining the data on inhibition of virus killing in human bronchial epithelial cells. […] It is possible that some of the other compounds will show improvements in potency once pure stocks of known concentration are obtained (see FIG. 7). […] From these 71 inhibitors, 8 different compound families were chosen for further analyses (see FIG. 7).
# T1 sequence (P03496 whole entry): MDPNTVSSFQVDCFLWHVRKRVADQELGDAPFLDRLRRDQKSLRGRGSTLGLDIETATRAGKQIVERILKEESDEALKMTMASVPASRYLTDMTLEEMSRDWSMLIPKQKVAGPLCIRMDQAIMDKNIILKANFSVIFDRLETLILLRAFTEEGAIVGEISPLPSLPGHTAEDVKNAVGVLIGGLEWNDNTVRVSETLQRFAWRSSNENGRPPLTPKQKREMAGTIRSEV
SMILES,WSN HA titer 24H 24 hr (influenza virus (WSN)),WSN HA titer 24H 36 hr (influenza virus (WSN)),further results
O=C(O)CCCCCN1C(=O)c2cccc3cccc(c23)C1=O [Compound 8.1],1.00,0.50,–
O=C(O)CCCCCN1C(=O)c2cccc3c(N4CCCCC4)ccc(c23)C1=O [Compound 8.3],0.13,0.13,"Inhibition of virus growth compared with compound 8 (influenza virus (WSN)): more inhibitory of virus growth; Potency for inhibiting virus growth among analogs of compound 8 (influenza virus (WSN)): most potent compound for inhibiting virus growth; Inhibition of NS1 protein compared with compound 8 (NS1 protein): more inhibitory of NS1 protein; Score in the luciferase dependent assay (NS1 protein): did not score; Inhibition of firefly luciferase expression (firefly luciferase): inhibitor of firefly luciferase expression; Reversal of mRNA export block ([1]; MDCK cells infected with WSN, FIG. 10 (10 μM, MOI 0.01, 48 h in FIG. 10A)): significantly reverts the mRNA export block; Reversal of mRNA export blockage ([1]; compound at 50 μM, WSN MOI 1, 12 h (FIG. 10B)): significant reversal of mRNA export blockage; Inhibition of Renilla luciferase expression (Renilla luciferase): no effect"
O=C(O)CCN1C(=O)c2cccc3cccc(c23)C1=O [Compound 8.16],1.00,0.50,–
O=C(O)CCCN1C(=O)c2cccc3c([N+](=O)[O-])ccc(c23)C1=O [Compound 8.0],0.50,0.50,Activity in the original screen (NS1 protein): not one of the most active compounds; Potency in the infection assay (influenza virus): most potent in the infection assay
O=C(O)CCCN1C(=O)c2cccc3cc([N+](=O)[O-])cc(c23)C1=O [Compound 8.9],0.50,0.50,–
CCN1C(=O)c2cccc3c([N+](=O)[O-])ccc(c23)C1=O [Compound 8.6],0.13,0.25,Inhibition of virus growth compared with compound 8 (influenza virus (WSN)): more inhibitory of virus growth; Inhibition of NS1 protein compared with compound 8 (NS1 protein): more inhibitory of NS1 protein
O=C(O)CCCCCN1C(=O)c2cccc3c([N+](=O)[O-])ccc(c23)C1=O [Compound 8.10],0.13,0.19,–
O=C(O)CCN1C(=O)c2cccc3c([N+](=O)[O-])ccc(c23)C1=O [Compound 8.2],0.25,0.50,–
